Measured values as given in ChEMBL document CHEMBL1201862, “PubChem BioAssay data set” (2004).
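Briefly, cells in 96-well plates were exposed to five compound concentrations for 48 h, and endpoints were estimated by linear interpolation. At the GI50, growth is halved.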 Calls of active or inactive are those of the source. Rule as the data show it: active = GI50 up to about 1.1 µM and inactive = higher.

Experiments:
Experiment in all cases: NCI anticancer screen, dose series, 48 h
RPMI-8226 = test system: RPMI-8226
HCT-15 = test system: HCT-15
T47D = test system: T47D
SF-268 = test system: SF-268
NCI-H23 = test system: NCI-H23
Malme-3M = test system: Malme-3M
COLO 205 = test system: COLO 205
MDA-MB-231 = test system: MDA-MB-231
TK-10 = test system: TK-10
RXF 393 = test system: RXF 393
SNB-19 = test system: SNB-19
SNB-75 = test system: SNB-75
A498 = test system: A498
LOX IMVI = test system: LOX IMVI
K562 = test system: K562
SK-MEL-5 = test system: SK-MEL-5
NCI-H522 = test system: NCI-H522
UO-31 = test system: UO-31
OVCAR-5 = test system: OVCAR-5
SK-MEL-28 = test system: SK-MEL-28

SMILES | GI50 (RPMI-8226) | GI50 (HCT-15) | GI50 (T47D) | GI50 (SF-268) | GI50 (NCI-H23) | GI50 (Malme-3M) | GI50 (COLO 205) | GI50 (MDA-MB-231) | GI50 (TK-10) | GI50 (RXF 393) | GI50 (SNB-19) | GI50 (SNB-75) | GI50 (A498) | GI50 (LOX IMVI) | GI50 (K562) | GI50 (SK-MEL-5) | GI50 (NCI-H522) | GI50 (UO-31) | GI50 (OVCAR-5) | GI50 (SK-MEL-28)
NCCN(CCN)/[N+]([O-])=N/O | > 100 µM (inactive) | > 100 µM | > 100 µM (inactive) | > 100 µM (inactive) | > 100 µM (inactive) | > 100 µM (inactive) | > 100 µM (inactive) | > 100 µM (inactive) | > 100 µM (inactive) | > 100 µM (inactive) | > 100 µM (inactive) | > 100 µM (inactive) | > 100 µM (inactive) | > 100 µM (inactive) | 50.5 µM (inactive) | > 100 µM (inactive) | 93.3 µM (inactive) | > 100 µM (inactive) | > 100 µM (inactive) | > 100 µM (inactive)
O=C1c2cccnc2C(=O)C2C3C=CC(C3)C12 (stereo not given) | 2.49 µM (inactive) | 12 µM | 3.01 µM (inactive) | 10.2 µM (inactive) | 12.1 µM (inactive) | 15.1 µM (inactive) | 13.3 µM (inactive) | 2.78 µM (inactive) | 18 µM (inactive) | 2.69 µM (inactive) | 15 µM (inactive) | 12.6 µM (inactive) | 21.2 µM (inactive) | 3.66 µM (inactive) | 2.94 µM (inactive) | 10.8 µM (inactive) | 3.27 µM (inactive) | 11.8 µM (inactive) | 18.3 µM (inactive) | 15.2 µM (inactive)
Cc1ccccc1/N=N/c1cc(C)c(/N=N/c2c(O)ccc3ccccc23)cc1C | > 100 µM (inactive) | > 100 µM | > 100 µM (inactive) | > 100 µM (inactive) | > 100 µM (inactive) | > 100 µM (inactive) | > 100 µM (inactive) | > 100 µM (inactive) | > 100 µM (inactive) | > 100 µM (inactive) | > 100 µM (inactive) | 73.1 µM (inactive) | > 100 µM (inactive) | > 100 µM (inactive) | > 100 µM (inactive) | > 100 µM (inactive) | > 100 µM (inactive) | > 100 µM (inactive) | > 100 µM (inactive) | > 100 µM (inactive)
COc1ccc(-c2cs/c(=N\c3ccccc3)n2CC(O)c2ccc([N+](=O)[O-])cc2)cc1 (stereo not given) | 6.37 µM (inactive) | > 100 µM | 5.42 µM (inactive) | > 100 µM (inactive) | > 100 µM (inactive) | > 100 µM (inactive) | > 100 µM (inactive) | > 100 µM (inactive) | > 100 µM (inactive) | > 100 µM (inactive) | > 100 µM (inactive) | > 100 µM (inactive) | > 100 µM (inactive) | > 100 µM (inactive) | 3.84 µM (inactive) | 4.04 µM (inactive) | > 100 µM (inactive) | > 100 µM (inactive) | > 100 µM (inactive) | > 100 µM (inactive)
O=C1CCCCCCCCCCC1CN1CCCC1 (stereo not given) | > 100 µM (inactive) | 32.8 µM | 46.1 µM (inactive) | 50 µM (inactive) | 36.1 µM (inactive) | 31.6 µM (inactive) | 20.1 µM (inactive) | 47.9 µM (inactive) | 32.3 µM (inactive) | 15.1 µM (inactive) | > 100 µM (inactive) | 32.9 µM (inactive) | 19.4 µM (inactive) | 19.4 µM (inactive) | 53.8 µM (inactive) | 17.6 µM (inactive) | 39.3 µM (inactive) | 35.1 µM (inactive) | 22.3 µM (inactive) | 22.1 µM (inactive)
COC(=O)C1OC(O[C@H]2CC[C@]3(C)[C@H]4CC=C5[C@@H]6CC(C)(C)CC[C@]6(C(=O)OC6OCC(O)C(O)C6OC6OC(C)C(OC7OCC(O)C(O)C7O)C(OC7OCC(O)(CO)C7O)C6O)[C@H](O)C[C@@]5(C)[C@]4(C)CC[C@H]3C2(C)C)C(O)C(O)C1O (stereo not given in full) | 3.86 µM (inactive) | 10.3 µM | 3.86 µM (inactive) | 10 µM (inactive) | 1.8 µM (inactive) | 4.14 µM (inactive) | 1.57 µM (inactive) | 2.32 µM (inactive) | 15.9 µM (inactive) | 10.9 µM (inactive) | 5.57 µM (inactive) | 6.27 µM (inactive) | 1.76 µM (inactive) | 7.64 µM (inactive) | 5.08 µM (inactive) | 4.65 µM (inactive) | 2.14 µM (inactive) | 1.81 µM (inactive) | 3.97 µM (inactive) | 2.2 µM (inactive)
CCCCCN(CCCCC)CC(C)(C)C(O)c1ccc(OC)c2ccccc12 (stereo not given) | 4.15 µM (inactive) | 5.81 µM | 4.56 µM (inactive) | 13.3 µM (inactive) | 11.2 µM (inactive) | 14.1 µM (inactive) | 6.85 µM (inactive) | 13.8 µM (inactive) | 7.98 µM (inactive) | 7.78 µM (inactive) | 10.7 µM (inactive) | 20.5 µM (inactive) | 14.3 µM (inactive) | 1.68 µM (inactive) | 3.01 µM (inactive) | 3.52 µM (inactive) | 6.79 µM (inactive) | 2.25 µM (inactive) | 11.9 µM (inactive) | 10.5 µM (inactive)
CCN1CCC(O)(/C=C/c2ccc(Cl)c(Cl)c2)C(C(=O)/C=C/c2ccc(Cl)c(Cl)c2)C1 (stereo not given) | 0.136 µM (active) | 1.89 µM | 0.966 µM (active) | 1.06 µM (active) | 0.255 µM (active) | 1.05 µM (active) | 0.705 µM (active) | 0.635 µM (active) | 1.32 µM (inactive) | 1.35 µM (inactive) | 1.89 µM (inactive) | 1.01 µM (active) | 0.891 µM (active) | 0.794 µM (active) | 0.324 µM (active) | 0.834 µM (active) | 0.948 µM (active) | 0.995 µM (active) | 1.12 µM (inactive) | 0.881 µM (active)
CN(C)S(=O)(=O)c1ccc2c(c1)/C(=C1/Nc3ccccc3C1=O)C(=O)N2 | > 100 µM (inactive) | 87.9 µM | 24.8 µM (inactive) | 14.7 µM (inactive) | 16.1 µM (inactive) | > 100 µM (inactive) | > 100 µM (inactive) | 17 µM (inactive) | 19.5 µM (inactive) | 1.71 µM (inactive) | 15.7 µM (inactive) | 0.0617 µM (active) | 29.8 µM (inactive) | 41.6 µM (inactive) | 34.8 µM (inactive) | > 100 µM (inactive) | 25.5 µM (inactive) | 44.3 µM (inactive) | > 100 µM (inactive) | > 100 µM (inactive)
CC(O)CNC1=CC(=O)C(=O)c2ccccc21 (stereo not given) | 18.2 µM (inactive) | 15 µM | 20.9 µM (inactive) | 16 µM (inactive) | 16.5 µM (inactive) | 4.15 µM (inactive) | 7.64 µM (inactive) | 22 µM (inactive) | 28.7 µM (inactive) | 35.4 µM (inactive) | 16.7 µM (inactive) | 14.9 µM (inactive) | 27.7 µM (inactive) | 15.9 µM (inactive) | 28.9 µM (inactive) | 2.82 µM (inactive) | 18.5 µM (inactive) | 17.7 µM (inactive) | 19.5 µM (inactive) | 19 µM (inactive)
